From ChEMBL document CHEMBL1201862, “PubChem BioAssay data set” (2004)
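A five-concentration, 48-hour dose response in 96-well plates underlies each endpoint, interpolated linearly between surrounding concentrations. GI50: concentration for 50% inhibition of growth.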 Activity calls are given as the source filed them. No stated cut-off is given here; in the data, active = GI50 up to about 1.1 µM and inactive = higher.

Experiments:
Assay in all cases: NCI tumour cell line growth inhibition, 48 h
SW-620 = test system: SW-620
UO-31 = test system: UO-31
NCI-H23 = test system: NCI-H23
U-251 = test system: U-251
ACHN = test system: ACHN
UACC-257 = test system: UACC-257
COLO 205 = test system: COLO 205
OVCAR-4 = test system: OVCAR-4
SN12C = test system: SN12C
PC-3 = test system: PC-3
DU-145 = test system: DU-145
LOX IMVI = test system: LOX IMVI
CCRF-CEM = test system: CCRF-CEM
Hs-578T = test system: Hs-578T
UACC-62 = test system: UACC-62
A549 = test system: A549
SF-295 = test system: SF-295
SK-MEL-28 = test system: SK-MEL-28
OVCAR-3 = test system: OVCAR-3
SNB-19 = test system: SNB-19
HT-29 = test system: HT-29
HOP-92 = test system: HOP-92
T47D = test system: T47D
K562 = test system: K562
RPMI-8226 = test system: RPMI-8226
IGROV-1 = test system: IGROV-1
OVCAR-5 = test system: OVCAR-5
SR = test system: SR
MCF7 = test system: MCF7
NCI-H460 = test system: NCI-H460
EKVX = test system: EKVX
A498 = test system: A498
786-0 = test system: 786-0
MDA-N = test system: MDA-N
MDA-MB-231 = test system: MDA-MB-231
CAKI-1 = test system: CAKI-1
HCT-15 = test system: HCT-15
SF-268 = test system: SF-268
HOP-62 = test system: HOP-62
HCC 2998 = test system: HCC 2998
OVCAR-8 = test system: OVCAR-8
SK-MEL-5 = test system: SK-MEL-5
M14 = test system: M14
KM12 = test system: KM12
MDA-MB-435 = test system: MDA-MB-435
TK-10 = test system: TK-10
BT-549 = test system: BT-549
HCT-116 = test system: HCT-116
NCI-H226 = test system: NCI-H226
SK-MEL-2 = test system: SK-MEL-2
SK-OV-3 = test system: SK-OV-3
SNB-75 = test system: SNB-75
NCI/ADR-RES = test system: NCI/ADR-RES
MOLT-4 = test system: MOLT-4
HL-60 = test system: HL-60
Malme-3M = test system: Malme-3M
SF-539 = test system: SF-539
NCI-H522 = test system: NCI-H522
RXF 393 = test system: RXF 393

COc1ccc(-n2cnc3c(NC(Cc4ccccc4)C(=O)O)ncnc32)cc1 (configuration not stated)
GI50 (SW-620): > 100 µM (inactive) | GI50 (UO-31): > 100 µM (inactive) | GI50 (NCI-H23): > 100 µM (inactive) | GI50 (U-251): > 100 µM (inactive) | GI50 (ACHN): > 100 µM (inactive) | GI50 (UACC-257): > 100 µM (inactive) | GI50 (COLO 205): > 100 µM (inactive) | GI50 (OVCAR-4): > 100 µM (inactive) | GI50 (SN12C): > 100 µM (inactive) | GI50 (PC-3): > 100 µM (inactive) | GI50 (DU-145): > 100 µM (inactive) | GI50 (LOX IMVI): > 100 µM (inactive) | GI50 (CCRF-CEM): > 100 µM (inactive) | GI50 (Hs-578T): > 100 µM (inactive) | GI50 (UACC-62): > 100 µM (inactive) | GI50 (A549): > 100 µM (inactive) | GI50 (SF-295): > 100 µM (inactive) | GI50 (SK-MEL-28): > 100 µM (inactive) | GI50 (OVCAR-3): > 100 µM (inactive) | GI50 (SNB-19): > 10 µM (inactive) | GI50 (HT-29): > 100 µM (inactive) | GI50 (HOP-92): > 100 µM (inactive) | GI50 (T47D): 92.7 µM (inactive) | GI50 (K562): > 100 µM (inactive) | GI50 (RPMI-8226): > 100 µM (inactive) | GI50 (IGROV-1): > 100 µM (inactive) | GI50 (OVCAR-5): > 100 µM (inactive) | GI50 (SR): > 100 µM (inactive) | GI50 (MCF7): > 100 µM (inactive) | GI50 (NCI-H460): > 100 µM (inactive) | GI50 (EKVX): > 100 µM (inactive) | GI50 (A498): > 100 µM (inactive) | GI50 (786-0): > 100 µM (inactive) | GI50 (MDA-N): > 100 µM (inactive) | GI50 (MDA-MB-231): > 100 µM (inactive) | GI50 (CAKI-1): > 100 µM (inactive) | GI50 (HCT-15): > 100 µM | GI50 (SF-268): > 100 µM (inactive) | GI50 (HOP-62): > 100 µM (inactive) | GI50 (HCC 2998): > 100 µM (inactive) | GI50 (OVCAR-8): > 100 µM (inactive) | GI50 (SK-MEL-5): > 100 µM (inactive) | GI50 (M14): > 100 µM (inactive) | GI50 (KM12): > 100 µM (inactive) | GI50 (MDA-MB-435): > 100 µM (inactive) | GI50 (TK-10): > 100 µM (inactive) | GI50 (BT-549): > 100 µM (inactive) | GI50 (HCT-116): > 100 µM (inactive) | GI50 (NCI-H226): > 100 µM (inactive) | GI50 (SK-MEL-2): > 100 µM (inactive) | GI50 (SK-OV-3): > 100 µM (inactive) | GI50 (SNB-75): > 100 µM (inactive) | GI50 (NCI/ADR-RES): > 100 µM (inactive)

CCN(CC)c1ccc2cc(-c3csc(-c4ccc(N(C)C)cc4)n3)c(=O)oc2c1
GI50 (SW-620): > 100 µM (inactive) | GI50 (UO-31): > 100 µM (inactive) | GI50 (MOLT-4): > 100 µM (inactive) | GI50 (U-251): > 100 µM (inactive) | GI50 (ACHN): > 100 µM (inactive) | GI50 (UACC-257): > 100 µM (inactive) | GI50 (HL-60): > 100 µM (inactive) | GI50 (COLO 205): > 100 µM (inactive) | GI50 (OVCAR-4): > 100 µM (inactive) | GI50 (SN12C): > 100 µM (inactive) | GI50 (PC-3): > 100 µM (inactive) | GI50 (DU-145): > 100 µM (inactive) | GI50 (LOX IMVI): > 100 µM (inactive) | GI50 (Malme-3M): > 100 µM (inactive) | GI50 (CCRF-CEM): > 100 µM (inactive) | GI50 (Hs-578T): > 100 µM (inactive) | GI50 (UACC-62): > 100 µM (inactive) | GI50 (A549): > 100 µM (inactive) | GI50 (SF-295): > 100 µM (inactive) | GI50 (SK-MEL-28): > 100 µM (inactive) | GI50 (SNB-19): > 100 µM (inactive) | GI50 (HT-29): > 100 µM (inactive) | GI50 (HOP-92): > 100 µM (inactive) | GI50 (T47D): > 100 µM (inactive) | GI50 (SF-539): > 100 µM (inactive) | GI50 (K562): > 100 µM (inactive) | GI50 (RPMI-8226): > 100 µM (inactive) | GI50 (IGROV-1): > 100 µM (inactive) | GI50 (NCI-H522): > 100 µM (inactive) | GI50 (RXF 393): > 100 µM (inactive) | GI50 (OVCAR-5): > 100 µM (inactive) | GI50 (SR): > 100 µM (inactive) | GI50 (MCF7): > 100 µM (inactive) | GI50 (NCI-H460): > 100 µM (inactive) | GI50 (EKVX): > 100 µM (inactive) | GI50 (786-0): > 100 µM (inactive) | GI50 (MDA-N): > 100 µM (inactive) | GI50 (MDA-MB-231): > 100 µM (inactive) | GI50 (CAKI-1): > 100 µM (inactive) | GI50 (HCT-15): > 100 µM | GI50 (SF-268): > 100 µM (inactive) | GI50 (HOP-62): > 100 µM (inactive) | GI50 (HCC 2998): > 100 µM (inactive) | GI50 (OVCAR-8): > 100 µM (inactive) | GI50 (SK-MEL-5): > 100 µM (inactive) | GI50 (M14): > 100 µM (inactive) | GI50 (KM12): 67.9 µM (inactive) | GI50 (MDA-MB-435): > 100 µM (inactive) | GI50 (TK-10): > 100 µM (inactive) | GI50 (BT-549): > 100 µM (inactive) | GI50 (HCT-116): > 100 µM (inactive) | GI50 (NCI-H226): > 100 µM (inactive) | GI50 (SK-MEL-2): > 100 µM (inactive) | GI50 (SK-OV-3): > 100 µM (inactive) | GI50 (SNB-75): 23.1 µM (inactive) | GI50 (NCI/ADR-RES): > 100 µM (inactive)

CN(C)CCNCc1ccc2c(-c3ccccc3)nc3cc(Cl)c(Cl)cc3n12
GI50 (SW-620): 8.83 µM (inactive) | GI50 (UO-31): 7.83 µM (inactive) | GI50 (NCI-H23): 14.6 µM (inactive) | GI50 (MOLT-4): 8.53 µM (inactive) | GI50 (U-251): 9.08 µM (inactive) | GI50 (ACHN): 7.6 µM (inactive) | GI50 (UACC-257): 9.4 µM (inactive) | GI50 (HL-60): 2.01 µM (inactive) | GI50 (COLO 205): 6.92 µM (inactive) | GI50 (OVCAR-4): 11.3 µM (inactive) | GI50 (SN12C): 9.93 µM (inactive) | GI50 (PC-3): 10.9 µM (inactive) | GI50 (DU-145): 9.64 µM (inactive) | GI50 (LOX IMVI): 7.48 µM (inactive) | GI50 (Malme-3M): 17.5 µM (inactive) | GI50 (CCRF-CEM): 1.3 µM (inactive) | GI50 (Hs-578T): 17.9 µM (inactive) | GI50 (UACC-62): 8.85 µM (inactive) | GI50 (A549): 10.1 µM (inactive) | GI50 (SF-295): 13.1 µM (inactive) | GI50 (SK-MEL-28): 5.78 µM (inactive) | GI50 (OVCAR-3): 17.5 µM (inactive) | GI50 (SNB-19): 14 µM (inactive) | GI50 (HT-29): 8.3 µM (inactive) | GI50 (HOP-92): 13.1 µM (inactive) | GI50 (T47D): 4.94 µM (inactive) | GI50 (SF-539): 7.35 µM (inactive) | GI50 (K562): 8.32 µM (inactive) | GI50 (RPMI-8226): 12.8 µM (inactive) | GI50 (IGROV-1): 7.59 µM (inactive) | GI50 (NCI-H522): 13.6 µM (inactive) | GI50 (RXF 393): 4.98 µM (inactive) | GI50 (OVCAR-5): 10.6 µM (inactive) | GI50 (MCF7): 6.19 µM (inactive) | GI50 (NCI-H460): 9.68 µM (inactive) | GI50 (EKVX): 15.3 µM (inactive) | GI50 (A498): 15.2 µM (inactive) | GI50 (786-0): 5.96 µM (inactive) | GI50 (MDA-N): 9.48 µM (inactive) | GI50 (MDA-MB-231): 10.2 µM (inactive) | GI50 (CAKI-1): 8.51 µM (inactive) | GI50 (HCT-15): 9.62 µM | GI50 (SF-268): 13.9 µM (inactive) | GI50 (HOP-62): 7.33 µM (inactive) | GI50 (HCC 2998): 2.33 µM (inactive) | GI50 (OVCAR-8): 11.1 µM (inactive) | GI50 (SK-MEL-5): 8.32 µM (inactive) | GI50 (M14): 8.13 µM (inactive) | GI50 (KM12): 9.73 µM (inactive) | GI50 (MDA-MB-435): 8.69 µM (inactive) | GI50 (TK-10): 10.9 µM (inactive) | GI50 (BT-549): 16.4 µM (inactive) | GI50 (HCT-116): 7.74 µM (inactive) | GI50 (NCI-H226): 17.9 µM (inactive) | GI50 (SK-MEL-2): 9.57 µM (inactive) | GI50 (SK-OV-3): 6.43 µM (inactive) | GI50 (SNB-75): 7.46 µM (inactive) | GI50 (NCI/ADR-RES): 15.8 µM (inactive)
